Where “and” joins values, the source holds several entries; their conditions need not be identical. Equal values may be shown once. Calls of active or inactive are those of the source.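 The calls were made as follows: active = compounds giving half or more protection of infected cells from virus-caused growth loss, again on retest; inactive = the rest.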
System: CEM cells HIV-1 protection, formazan growth assay
Test: NCI AIDS Antiviral Assay
Conditions: for IC50: measured here: growth of uninfected CEM cells
Outline: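 Five concentrations of each compound were applied to infected and uninfected human CEM cells. Protection from HIV-1 was judged from growth measured with a soluble formazan assay.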

Row | SMILES | EC50 [µM] | IC50 | outcome
1 | COc1ccc(-c2onc(-c3ccc([N+](=O)[O-])cc3)c2C2=NCCCN2)cc1 | > 50.1 | > 50.1 µM | –
2 | O=c1cc(NNc2cccc(Cl)c2)[nH]c(=O)[nH]1 | > 200 | 1.05 µM | –
3 | c1csc(-c2cc(-c3ccsc3)c(-c3ccsc3)s2)c1 | > 200 | 148 µM | –
4 | CCCC(=O)n1[nH]c(=O)n(C(C)(C)C)c1=O | > 200 | > 200 µM | –
5 | CC12CCC(OC3OC(CO)C(OC4OC(CO)C(O)C(O)C4O)C(O)C3O)CC1CCC1C2CCC2(C)C(C3=CC(=O)OC3)CCC12O (stereo unspecified) | > 20 | 0.309 µM | –
6 | CCOC(=O)c1ccc(CS(=O)(=O)c2ccc(Cl)cc2)cc1 | > 55 | > 55 µM | –
7 | CC[N+](C)(C)CC(O)(O)C(F)F | > 200 | > 200 µM | –
8 | CC1=Nc2ccc(Cl)cc2N=C(C)C1 | > 200 | 155 µM | –
9 | CC1=NC(c2ccccc2)(C2(c3ccccc3)C(c3ccccc3)=C2c2ccccc2)C(=O)O1 (stereo unspecified) | > 6.17 | > 6.17 µM | –
10 | CN(C)S(=O)(=O)c1c(N)ncn1C | > 1230 | > 1230 µM | –
11 | CN=c1c2c(c3[nH]c4ccccc4c4cnc1c34)NCCC2=O | > 200 | 1.41 µM | –
12 | CCOC(=O)c1nc2ccc(OC)cc2c2c1Cc1ccccc1-2 | > 22.4 | > 22.4 µM | –
13 | COc1cc(Cc2nnc(SC)nc2C)cc(OC)c1OC | 10 | 22.4 µM | –
14 | COC(=O)/C(C#N)=C/n1ccc(=O)[nH]c1=S | > 200 | > 200 µM | –
15 | Cc1ccc(-c2cnc(NC3OC(COC(=O)c4ccccc4)C(OC(=O)c4ccccc4)C(OC(=O)c4ccccc4)C3OC(=O)c3ccccc3)s2)cc1 (stereo unspecified) | > 200 | 13.8 µM | –
16 | COc1ccc(/C=C2\NC(=S)N(CN3CCOCC3)C2=O)cc1 | > 200 | 46.8 µM | –
17 | CC(O)CCNc1nnc2c3ccccc3n(C)c2n1 (stereo unspecified) | > 200 | > 200 µM | –
18 | CC(=O)C1=C(O)CCC1=O | > 200 | > 200 µM | –
19 | Clc1ccc(C2ON=C(c3ccccc3)N2C23CC4CC(CC(C4)C2)C3)c(Cl)c1 (stereo unspecified) | > 200 | > 200 µM | –
20 | CCOP(=S)(Nc1cccc(C(F)(F)F)c1)OCC | > 200 | 166 µM | –
21 | Cc1cnc2sn(-c3ccc(Br)cc3)c(=O)c2c1 | > 200 | 11.5 µM | –

Row | SMILES | EC50 [µM] | IC50 | outcome
22 | CN(C)c1nncc2[nH]cnc12 | > 200 | > 200 µM | –
23 | CC1=CC[C@@H]2C(=O)C=CC=C[C@H]12.[C-]#[O+].[C-]#[O+].[C-]#[O+].[Fe] | > 316 | 178 µM | –
24 | CCOC(=O)/C(=C\c1cccc(C#N)c1)P(=O)(OCC)OCC | > 537 | 11 µM | –
25 | O=c1ssc(=Nc2ccccc2)n1-c1ccccc1 | > 200 | 67.6 µM and 56.2 µM | –
26 | O=c1c2ccccc2nc2sc(/N=C/C=C/c3ccccc3)nn12 | > 200 | 41.7 µM | –
27 | CN(C)c1ccc(C2SCC(=O)N2c2ccc(Oc3ccc(Cl)cc3)c(Cl)c2)cc1 (stereo unspecified) | > 200 | 29.5 µM | –
28 | C/C(=N\NC(=S)NC(C)(C)C)c1ccccn1 | > 200 | 0.0631 µM | –
29 | CCOC(=O)c1[nH]cc(C)c1-c1cccn1-c1ccc(Cl)cc1[N+](=O)[O-] | > 200 | 30.9 µM | –
30 | COc1cc(CNc2nc3ccccc3n2Cc2ccccc2)cc(CN2CCOCC2)c1O | > 200 | 32.4 µM | –
31 | CCN(CC)C(=O)c1cccc2c1OCO2 | > 1120 | > 1120 µM | –
32 | COC(=O)CN(CC(=O)OC)S(=O)(=O)c1ccc(-c2c3nc(c(-c4ccc(S(=O)(=O)N(CC(=O)OC)CC(=O)OC)cc4)c4ccc([nH]4)c(-c4ccc(S(=O)(=O)N(CC(=O)OC)CC(=O)OC)cc4)c4nc(c(-c5ccc(S(=O)(=O)N(CC(=O)OC)CC(=O)OC)cc5)c5ccc2[nH]5)C=C4)C=C3)cc1 | > 100 | > 100 µM | –
33 | O=[N+]([O-])c1cccc(N=Cc2ccccc2O)c1 | > 200 | 91.2 µM | –
34 | OCC1OC(n2nc(-c3ccccc3)nc2-c2cnccn2)C(O)C(O)C1O (stereo unspecified) | > 200 | > 200 µM | –
35 | N#Cc1c(-c2ccc(Cl)c(Cl)c2)c(-c2ccc(Cl)c(Cl)c2)nn(CCO)c1=O | > 41.7 | 0.759 µM | –
36 | CCOC(=O)/C(C#N)=C/c1ccccc1Cl | – | – | inactive
37 | O=C(C(O)c1cn(Cc2ccccc2)c2ccccc12)N1CCCCC1 (stereo unspecified) | – | – | inactive
38 | NC(=O)NCCCC(NC(=O)OCCCCCCn1ccc(=O)[nH]c1=O)C(=O)O (stereo unspecified) | > 200 | 32.4 µM | –
39 | Cc1ccc(S[C@@H](C)[C@@](O)(C(N)=O)c2ccccc2)cc1 | > 200 | 30.2 µM | –
40 | COc1cc(COC(=O)N2CSCC2C(=O)O)c([N+](=O)[O-])cc1OC (stereo unspecified) | > 676 | > 676 µM | –
41 | C=CCOC1(CC=C)C(=O)OC2C(O)COC21O (stereo unspecified) | > 200 | > 200 µM | –
42 | CC(=O)NNC(=S)/N=C\c1c(O)c2ccccc2oc1=O | – | – | inactive

— PubChem BioAssay AID179 (DTP/NCI, 2004)
